In publication PMC3125149, “SCYX-7158, an Orally-Active Benzoxaborole for the Treatment of Stage 2 Human African Trypanosomiasis” (PLoS Neglected Tropical Diseases, 2011):
In brackets after ≈: the same amount, converted by molar mass.

Assays:
[1] = Metabolic stability in liver microsomal and S9 fractions; type: in vitro ADME, rodents, cynomolgus monkey and humans; settings: CD-1 (mouse), Sprague-Dawley (rat), beagle (dog), cynomolgus monkey, human, liver microsomes and liver S9 fractions, all species
Experimental: Metabolic stability was evaluated using mixed gender CD-1 mouse or human liver microsomal fractions (XenoTech, Lenexa, KS). Compounds (1 µM) were incubated with microsomes (1.05 mg/mL protein) for 0, 10, 15 and 30 min at 37°C in an oxygen and humidity enriched environment in the presence of an NADPH-regenerating system. Each compound was also incubated, under the same conditions, with CD-1 mouse, Sprague-Dawley rat, beagle dog, cynomolgus monkey, and human liver S9 sub-cellular fractions (2 mg/mL protein)[23] for 0, 15, 30 and 60 min. At the end of each incubation period, the reactions were quenched with 3 volumes of ice-cold methanol. Supernatants from the incubation mixtures were analyzed for parent compound by LC-MS/MS. Metabolic competencies of microsomal and S9 fractions were confirmed using control compounds 7-ethoxycoumarin, propranolol and verapamil. Intrinsic clearance (CLint) and half-life (t½) values were determined for each compound.

Lipophilicity = type: physicochemical
Text: (§1) Table 3 In vitro physicochemical and ADME properties of SCYX-7158. | column: Value

Aqueous solubility = type: physicochemical; settings: pH 7.4 PBS
Text: as §1

>100 biochemical targets = test: Array of in vitro receptor binding and enzyme inhibition assays; settings: test concentration 10 µM

Question: What does the source list for `CC1(C)OB(O)c2cc(NC(=O)c3ccc(F)cc3C(F)(F)F)ccc21` [SCYX-7158]?
Answer: half-life at 1 µM [1]: > 5.83 h; microsomal CLint at 1 µM ([1]; read-out: intrinsic clearance): < 5 µL/min/mg; logD (Lipophilicity): 3.51; solubility (Aqueous solubility): 25 µM (≈ 9.18 µg/mL); binding to or inhibition of off-target panel (>100 biochemical targets): did not exhibit any significant binding to, or inhibition of
